Values of other authors as cited in patent US4689323A, “Covalently bound heparin--antithrombin-III complex” (Miles Laboratories, Inc., priority 1983, dated 1987).

Assays:
[1] = test system: plasma antithrombin-III ("AT-III"); conditions: continuous intravenous infusion, thromboembolic patients
[2] = Scientific Protein Labs., porcine intestines

heparin sodium
decrease in plasma antithrombin-III levels [1]: about 35%
anticoagulant activity of the starting heparin [2]: 167.7 USP units/mg
